Experiment: gradient 5% acetonitrile 3 min, to 50% in 2 min, to 85% in 15 min, held 3 min, 100 µL/min
Details: column: Zorbax Extend-C18 2.1 x 50 mm; eluents: water / acetonitrile, 0.1% formic acid
Procedure, shortened: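 Each retention time is based on an adduct peak selected computationally and verified by manual inspection. Measurements used HPLC–quadrupole time-of-flight mass spectrometry in positive and negative ionization mode on mixtures of ~100 pure standards. Chromatography ran on a Zorbax Extend-C18 column (2.1 × 50 mm, 1.8 μm) at 100 μL/min with water and acetonitrile, each containing 0.1% formic acid, and dead and dwell volumes of 40 μL and 900 μL.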

SMILES | RP-LC retention time
O=C(c1csc(C(=O)N2CCCC2)n1)N1CCN(Cc2ccccc2)CC1 | 603 s
CC(=O)N1CCC(c2nc(-c3ccc(CNC(=O)C4CC4)s3)no2)CC1 | 661 s
CCCCOc1ccc(NC(=O)c2cc(=O)c3ccc(C)c(C)c3o2)c2cccnc12 | 788 s
CCc1ccc(NS(=O)(=O)c2cc3n(c2)CCCNC3=O)cc1 | 691 s
O=S(=O)(c1cccnc1)N1CC(c2nc(-c3ccncc3)no2)C1 | 663 s
Cc1nn(-c2ccc(Cl)cc2)c(C)c1S(=O)(=O)N1CCC(C(=O)Nc2ccccc2F)CC1 | 1020 s
CC(C)c1cc(C(=O)Nc2ccc(F)c(F)c2)no1 | 1040 s
COc1ccc(-c2noc(-c3cccn(CC(=O)NC(C)C)c3=O)n2)cc1OC | 688 s
O=C(NCCn1c(-c2ccccc2)nc2cccnc21)Nc1ccc2c(c1)OCO2 | 722 s
CCOc1ccccc1CN1CCc2nc(N3CCN(CC)CC3)ncc2C1 | 1120 s
CC(C)Cc1ccc(S(=O)(=O)N2CCN(c3ccccn3)CC2)cc1 | 840 s
CCN(Cc1ccncc1)C(=O)C(CO)c1ccccc1 (stereo unspecified) | 619 s
COc1cccc(CNC(=O)C2(C)CCCN(C(=O)Nc3cc(OC)ccc3OC)C2)c1 (stereo unspecified) | 844 s
Cc1cc(C)c(S(=O)(=O)Nc2ccc3nc(N4CCN(C)CC4)cc(C(=O)O)c3c2)cc1C | 611 s
O=C(NC1CC1)C1CCN(S(=O)(=O)c2ccc(-c3noc(C4CC4)n3)cc2)CC1 | 803 s
Cc1ccc(CNC(=O)C2CCCN(c3nc4c(s3)c(C)nn4-c3ccc(Cl)cc3)C2)cc1 (stereo unspecified) | 1290 s
Cc1ccc(F)c(NS(=O)(=O)c2cc3n(c2)CCCN(C)C3=O)c1 | 687 s
CCC(=O)Nc1cnc2c(c1)CCC2 | 491 s
CCOc1nccnc1N1CCC(N(C)C(=O)c2ccc(C#N)cc2)C1 (stereo unspecified) | 751 s
CCOC(=O)c1ccc(NC(=O)CN2CC(c3nc(-c4cccc(Cl)c4)no3)C2)cc1 | 650 s
Cc1ccc(S(=O)(=O)Cc2cccc(-c3nc(-c4cccc(-c5ccnn5C)c4)no3)c2)cc1 | 1140 s
CCS(=O)(=O)Nc1cccc(C2=NN(S(=O)(=O)CC)C(c3ccco3)C2)c1 (stereo unspecified) | 753 s

SMILES | RP-LC retention time
O=C1CC(c2nc(-c3ccc4c(c3)OCO4)no2)CN1c1ccc2c(c1)OCO2 (stereo unspecified) | 862 s
Cc1nn(-c2ccccc2)c2ccn(CC(=O)N3CCN(c4ccccc4Cl)CC3)c(=O)c12 | 642 s
CN(Cc1ccccc1)Cc1cc(=O)n2cc(Cl)ccc2n1 | 608 s
O=S(=O)(NCc1cccnc1-c1ccc(F)cc1)c1cccc(Br)c1 | 800 s
COc1ccc(CC(=O)NCC(c2ccsc2)N2CCc3ccccc3C2)cc1OC (stereo unspecified) | 573 s
CCCCn1c(=O)c2ccccc2n(Cc2nc(-c3ccc(OCC)c(OC)c3)no2)c1=O | 968 s
O=C(NCC1CCCO1)c1cc(=O)n(Cc2ccc(Cl)cc2)c2ccccc12 (stereo unspecified) | 815 s
CCn1cc(-c2nc(C)c(C(=O)NCc3ccc(OC)cc3)s2)c2cccnc21 | 902 s
Cc1ccc(S(=O)(=O)Nc2ccc(C3(C(=O)NCC4CCCO4)CC3)cc2)cc1 (stereo unspecified) | 824 s
O=C(NCc1cccc(Cl)c1)C1CC(=O)N(c2n[nH]c3cccc(F)c23)C1 (stereo unspecified) | 749 s
O=c1c2cc(-c3ccc(F)cc3)nn2ccn1Cc1nc(-c2cccc(Br)c2)no1 | 1150 s
COc1ccc(S(=O)Cc2ccc(C(=O)NCCCN3CCc4ccccc4C3)o2)cc1 (stereo unspecified) | 619 s
COC(=O)c1ccc(C(=O)NCC(c2ccccc2Cl)N(C)C)cc1 (stereo unspecified) | 560 s
CCOC(=O)C1=C(CN2CCC(c3ccccc3)C2)NC(=O)NC1c1cccs1 (stereo unspecified) | 681 s
CC(NC(=O)c1cc(-c2ccccc2)cn1C)c1cccnc1 (stereo unspecified) | 662 s
C=Cc1ccc(CSc2ccc(-n3nc4c(c3C)CCC4)nn2)cc1 | 1070 s
CCn1nccc1C(=O)N1CCN(C(=O)N2C[C@H]3C[C@H](C2)[C@H]2CCCC(=O)N2C3)CC1 | 609 s
O=S(=O)(c1ccc2nc(N3CCN(c4ccc(F)cc4)CC3)ccc2c1)N1CCCCC1 | 1050 s
Cc1nc2ccccc2c(=O)n1Cc1noc(-c2ccc3c(c2)OCO3)n1 | 831 s
CCCn1cc(C(=O)Nc2cccc(OC)c2)c(=O)c2ccc(C)nc21 | 1130 s
CN1C(=O)c2[nH]nc(-c3ccccc3)c2C1c1cccnc1 (stereo unspecified) | 609 s
CCOC(=O)c1[nH]c(C)c(CCC(=O)N2CCN(C(=O)c3ccco3)CC2)c1C | 709 s

SMILES | RP-LC retention time
O=C(Nc1ccccc1F)N1CCC(N2CCN(Cc3ccc(F)cc3)C2=O)CC1 | 811 s
CCC(=O)N(C1CCOCC1)C1CCN(S(=O)(=O)c2ccccc2Cl)CC1 | 840 s
Cn1nc(-c2nc(C3CC3)no2)c2c1CCN(C(=O)c1cccnc1)C2 | 642 s
CCCn1c(=O)c(N2CCC(NC(=O)Nc3ccc4c(c3)OCCO4)CC2)nc2ccccc21 | 933 s
COc1cc(C(=O)NC2CCN(c3cc(-c4ccccc4)[nH]n3)C2)cc(OC)c1OC (stereo unspecified) | 688 s
CC1CCCN(c2nn(CC(=O)Nc3cc(F)cc(F)c3)c(=O)c3ccccc23)C1 (stereo unspecified) | 1180 s
Cc1ccc(CSc2nnc3c(S(=O)(=O)N4CCCC4)cccn23)cc1 | 852 s
CC1(C)CC(=O)C2=C(C1)Nc1ccccc1N(C(=O)c1ccccc1)C2c1ccco1 (stereo unspecified) | 825 s
CCOc1ccc(C(=O)N2C[C@@H]3C[C@H](NC(=O)c4cccs4)[C@H]2C3)cc1 | 783 s
Cc1nc(-c2csc(S(=O)(=O)N3CCC(C(=O)Nc4ccc(Cl)cc4F)CC3)c2)no1 | 990 s
COC(=O)c1cc(OCC(=O)NCc2ccc3c(c2)OCO3)c2cc(OC)ccc2n1 | 749 s
CC(C)c1nncn1C1CCN(S(=O)(=O)Cc2cccc(Cl)c2)CC1 | 736 s
CCCn1c(=O)c(-c2ccc(C(=O)NCCCN3CCCC3)cc2)nc2ccccc21 | 653 s
Cc1ccc2nc3c(c(C(=O)NCC(C)C)c2c1)CCC3 | 650 s
Cc1ccc(NC(=O)N2CCN(C3=CC4=NC(C)CN4C=N3)CC2)c(C)c1 (stereo unspecified) | 627 s
O=C(NCc1ccccc1Cl)C1=C2CCCN2c2ccc(F)cc2S1(=O)=O | 913 s
CCOc1ccc(-c2noc(CN3C(=O)COc4cc(C(C)(C)C)ccc43)n2)cc1 | 1260 s
CC(=O)c1cccc(NC(=O)CN2C(=O)COc3ccc(C(=O)N(C)C)cc32)c1 | 651 s
CCOc1cc2c(cc1OCC)C1C(C(=O)N3CCN(CC)CC3)c3ccccc3C(=O)N1CC2 (stereo unspecified) | 638 s
COc1cccc(NC(=O)NCCCN2CCN(c3ccccc3)CC2)c1OC | 582 s
CCCn1ccc2sc(C)c(C(=O)NCc3cccc(C)c3)c2c1=O | 948 s
CC(C)c1cc(C(=O)Nc2ccc(F)cc2F)nc2ccnn12 | 1160 s

SMILES | RP-LC retention time
CCS(=O)(=O)N1CCc2ccc(NC(=O)c3ccco3)cc2C1 | 682 s
O=C(c1ccc(OCC2CCCN(C(=O)c3ccc(F)c(F)c3)C2)cc1)N1CCOCC1 (stereo unspecified) | 801 s
Cn1c(=O)c2nc(SCCC(=O)Nc3ccc(Br)cc3)n(C)c2n(C)c1=O | 757 s
c1cc(-c2noc(C3CCOCC3)n2)ccc1OC1CNC1 | 640 s
CCc1ccc(Oc2cc(N3CCC(C(=O)N4CCN(c5ccccn5)CC4)CC3)ncn2)cc1 | 689 s
CCOc1ccc2nc(Nc3ncc4c(n3)CC(c3ccc(OC)cc3)CC4=O)nc(C)c2c1 (stereo unspecified) | 809 s
COc1ccc(Cl)cc1NC(=O)Nc1ccc2c(c1)CCN2S(=O)(=O)c1ccccc1 | 1090 s
O=C1CC(c2noc(-c3ccc(F)cc3)n2)CN1Cc1ccccc1 (stereo unspecified) | 931 s
C[C@@H]1C[C@H]2[C@@H]3C[C@H](F)C4=CC(=O)C(Cl)=C[C@]4(C)[C@@]3(F)[C@@H](O)C[C@]2(C)[C@@]1(O)C(=O)CO | 847 s
O=C(Nc1ccc(F)c(Cl)c1)N1CCC(n2cnc3ccc(F)cc3c2=O)CC1 | 860 s
CCN(CC)C(=O)c1ccc2c(c1)N(CC(=O)NC1CCCC1)C(=O)C1CCCCN21 (stereo unspecified) | 789 s
O=C(C1=CN(c2ccc(F)cc2)c2cc(F)ccc2S1(=O)=O)N1CCCC1 | 748 s
CCCCOCCCNCc1ccc2c(c1)n(C)c(=O)n2C | 593 s
Cc1ccn2cc(-c3ccc(NC(=O)Nc4ccc(Cl)cc4)cc3)nc2n1 | 711 s
Cc1ncsc1C1N(C2CCN(C(=O)c3ccoc3)CC2)C(=O)C12CCCC2 (stereo unspecified) | 719 s
O=C(Nc1cc(F)cc(F)c1)c1c(O)c2cccnc2n(-c2ccc(F)cc2)c1=O | 918 s
COc1ccc(C)c2sc(NC(=O)c3cc(C)no3)nc12 | 800 s
COc1cc([C@@H]2c3cc4c(cc3[C@H](O)[C@@H](CO)[C@@H]2C(=O)N2CCN(C(C)C)CC2)OCO4)cc(OC)c1OC | 608 s
COc1ccccc1NC(=O)Nc1c(-c2ccc(C)cc2)nc2ccccn12 | 700 s
c1nc2ccc(-c3nc(-c4ccc5c(c4)nnn5CCN4CCCCC4)no3)cc2[nH]1 | 570 s

— the METLIN SMRT retention time set (Domingo-Almenara et al. 2019)
